ChEMBL document CHEMBL1201862, “PubChem BioAssay data set” (2004)
Active and inactive are the calls of the source.

What was measured:
Type in all cases: functional
[1] = target: G-protein coupled receptor 55 (Homo sapiens, UniProt Q9Y2T6); test: GPR55 agonists via beta-arrestin recruitment, primary screen, imaging, U2OS cells, beta-arrestin-GFP redistribution (AID 1961)
[2] = target: Potassium voltage-gated channel subfamily KQT member 2 (Rattus norvegicus, UniProt O88943); test: KCNQ2 potassium channel inhibitors, dose response, cell-based, automated electrophysiology, set II, rat KCNQ2 (AID 588637)
Sequence of Potassium voltage-gated channel subfamily KQT member 2 (O88943 whole entry): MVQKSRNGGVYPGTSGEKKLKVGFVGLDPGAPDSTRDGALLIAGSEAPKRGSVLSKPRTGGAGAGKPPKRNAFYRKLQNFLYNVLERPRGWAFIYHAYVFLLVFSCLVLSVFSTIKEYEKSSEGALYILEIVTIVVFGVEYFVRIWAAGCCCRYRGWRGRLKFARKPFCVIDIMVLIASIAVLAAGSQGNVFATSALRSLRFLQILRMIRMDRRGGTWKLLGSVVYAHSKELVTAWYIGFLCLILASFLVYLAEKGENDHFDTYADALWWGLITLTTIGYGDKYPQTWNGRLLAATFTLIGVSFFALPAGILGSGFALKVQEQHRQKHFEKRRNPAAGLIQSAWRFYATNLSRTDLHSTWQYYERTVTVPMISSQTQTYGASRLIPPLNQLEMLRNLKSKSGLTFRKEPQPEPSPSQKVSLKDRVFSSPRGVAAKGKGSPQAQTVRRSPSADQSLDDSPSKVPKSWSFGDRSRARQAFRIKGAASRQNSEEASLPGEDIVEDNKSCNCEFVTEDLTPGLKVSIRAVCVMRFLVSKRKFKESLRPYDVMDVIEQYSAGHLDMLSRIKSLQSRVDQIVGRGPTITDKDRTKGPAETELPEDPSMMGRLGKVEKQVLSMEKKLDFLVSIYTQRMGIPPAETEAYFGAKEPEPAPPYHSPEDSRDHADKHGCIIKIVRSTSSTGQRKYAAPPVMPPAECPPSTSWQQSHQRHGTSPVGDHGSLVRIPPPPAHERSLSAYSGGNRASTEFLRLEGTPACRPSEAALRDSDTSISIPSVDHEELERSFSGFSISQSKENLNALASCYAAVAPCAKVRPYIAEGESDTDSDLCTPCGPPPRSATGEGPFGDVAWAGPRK

[3] = target: T1, Sentrin-specific protease 6 (Homo sapiens, UniProt Q9GZR1);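 also: Luminescence-based dose-response confirmatory assay of SENP6 inhibition, following up an ultra-high-throughput screen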
T1 sequence (Q9GZR1 whole entry): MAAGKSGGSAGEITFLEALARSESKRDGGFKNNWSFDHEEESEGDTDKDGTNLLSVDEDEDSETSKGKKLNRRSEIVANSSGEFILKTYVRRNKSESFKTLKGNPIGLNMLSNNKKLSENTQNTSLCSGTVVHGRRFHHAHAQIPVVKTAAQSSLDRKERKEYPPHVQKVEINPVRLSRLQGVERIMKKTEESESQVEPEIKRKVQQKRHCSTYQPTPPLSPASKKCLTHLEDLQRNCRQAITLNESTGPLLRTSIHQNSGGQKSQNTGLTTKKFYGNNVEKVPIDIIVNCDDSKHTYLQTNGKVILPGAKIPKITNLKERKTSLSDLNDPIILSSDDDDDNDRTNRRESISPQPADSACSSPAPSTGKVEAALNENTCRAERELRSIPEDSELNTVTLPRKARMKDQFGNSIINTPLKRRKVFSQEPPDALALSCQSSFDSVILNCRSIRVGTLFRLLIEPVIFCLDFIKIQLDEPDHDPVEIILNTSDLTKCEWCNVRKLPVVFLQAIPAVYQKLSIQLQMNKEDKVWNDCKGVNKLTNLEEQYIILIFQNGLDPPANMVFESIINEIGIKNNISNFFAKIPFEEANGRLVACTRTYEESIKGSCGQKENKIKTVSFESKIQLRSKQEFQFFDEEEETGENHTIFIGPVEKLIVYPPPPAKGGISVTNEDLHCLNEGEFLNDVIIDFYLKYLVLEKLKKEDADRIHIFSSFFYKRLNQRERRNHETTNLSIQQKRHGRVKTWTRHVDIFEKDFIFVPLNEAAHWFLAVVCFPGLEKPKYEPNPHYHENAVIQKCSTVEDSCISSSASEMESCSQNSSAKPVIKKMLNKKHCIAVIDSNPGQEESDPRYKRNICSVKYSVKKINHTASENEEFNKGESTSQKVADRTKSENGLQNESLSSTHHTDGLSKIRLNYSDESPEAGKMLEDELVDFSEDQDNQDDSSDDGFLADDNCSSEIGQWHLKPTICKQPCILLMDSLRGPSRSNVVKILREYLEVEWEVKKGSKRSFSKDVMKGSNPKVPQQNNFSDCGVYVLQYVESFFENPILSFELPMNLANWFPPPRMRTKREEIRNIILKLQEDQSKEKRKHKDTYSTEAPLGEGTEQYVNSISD

[4] = target: T2, Sentrin-specific protease 7 (Homo sapiens, UniProt Q9BQF6);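 also: Luminescence-based dose-response confirmation of ultra-high-throughput screening hits, measuring inhibition of SENP7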
T2 sequence (Q9BQF6 whole entry): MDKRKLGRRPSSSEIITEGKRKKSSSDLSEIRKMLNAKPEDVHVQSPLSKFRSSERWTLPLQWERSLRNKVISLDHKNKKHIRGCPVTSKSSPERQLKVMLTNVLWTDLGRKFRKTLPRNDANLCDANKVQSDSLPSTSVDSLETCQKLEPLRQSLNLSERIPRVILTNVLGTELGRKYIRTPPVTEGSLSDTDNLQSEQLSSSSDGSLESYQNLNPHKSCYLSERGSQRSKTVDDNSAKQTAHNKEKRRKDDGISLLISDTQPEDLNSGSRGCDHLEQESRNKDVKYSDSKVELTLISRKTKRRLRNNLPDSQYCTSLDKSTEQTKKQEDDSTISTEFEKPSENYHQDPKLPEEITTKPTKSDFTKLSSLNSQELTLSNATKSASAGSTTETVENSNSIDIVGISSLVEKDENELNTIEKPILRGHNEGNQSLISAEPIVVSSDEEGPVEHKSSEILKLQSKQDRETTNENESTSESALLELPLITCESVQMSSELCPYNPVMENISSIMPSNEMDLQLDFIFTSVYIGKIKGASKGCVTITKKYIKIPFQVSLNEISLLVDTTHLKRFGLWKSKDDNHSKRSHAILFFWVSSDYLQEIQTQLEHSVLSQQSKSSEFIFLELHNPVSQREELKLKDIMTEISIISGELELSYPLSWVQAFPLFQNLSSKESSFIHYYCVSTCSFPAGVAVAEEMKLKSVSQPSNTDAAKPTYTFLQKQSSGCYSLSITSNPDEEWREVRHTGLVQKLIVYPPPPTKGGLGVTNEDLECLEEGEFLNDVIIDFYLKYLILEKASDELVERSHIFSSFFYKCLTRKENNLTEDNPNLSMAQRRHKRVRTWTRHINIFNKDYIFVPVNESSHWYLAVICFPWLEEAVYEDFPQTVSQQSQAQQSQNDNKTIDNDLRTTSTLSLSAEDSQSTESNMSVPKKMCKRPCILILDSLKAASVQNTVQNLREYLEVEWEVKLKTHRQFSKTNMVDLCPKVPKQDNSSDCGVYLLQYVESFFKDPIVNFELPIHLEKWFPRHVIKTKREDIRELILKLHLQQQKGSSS

Caspase-3 = target: T3, Caspase-3 (Homo sapiens, UniProt P42574);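 also: Dose-response selectivity test against caspase-3 for candidate inhibitors of sentrin-specific proteases (SENPs)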
T3 sequence (P42574 whole entry): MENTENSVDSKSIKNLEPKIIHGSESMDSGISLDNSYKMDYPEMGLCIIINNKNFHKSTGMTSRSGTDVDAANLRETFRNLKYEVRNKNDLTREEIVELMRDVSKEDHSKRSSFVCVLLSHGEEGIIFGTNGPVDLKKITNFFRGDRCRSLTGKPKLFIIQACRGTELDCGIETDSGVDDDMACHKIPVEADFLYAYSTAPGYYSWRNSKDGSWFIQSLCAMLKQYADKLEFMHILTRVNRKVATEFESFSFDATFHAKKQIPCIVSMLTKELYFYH

[5] = target: T4, Sentrin-specific protease 8 (Homo sapiens, UniProt Q96LD8);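 also: luminescence read-out of SENP8 inhibition, dose-response confirmation following an ultra-high-throughput screen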
T4 sequence (Q96LD8 whole entry): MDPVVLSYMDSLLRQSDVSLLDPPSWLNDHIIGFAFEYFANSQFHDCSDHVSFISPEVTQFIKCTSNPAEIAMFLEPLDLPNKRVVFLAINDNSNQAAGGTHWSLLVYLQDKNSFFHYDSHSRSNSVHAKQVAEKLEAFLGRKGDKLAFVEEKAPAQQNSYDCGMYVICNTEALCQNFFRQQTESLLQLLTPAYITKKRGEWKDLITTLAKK

[6] = target: Benomyl/methotrexate resistance protein (Candida albicans, UniProt P28873); test: CaMdr1 efflux pump inhibitor potency, dose response, singleplex, Cherry Pick1 hits (AID 588608)
Sequence of Benomyl/methotrexate resistance protein (P28873 whole entry): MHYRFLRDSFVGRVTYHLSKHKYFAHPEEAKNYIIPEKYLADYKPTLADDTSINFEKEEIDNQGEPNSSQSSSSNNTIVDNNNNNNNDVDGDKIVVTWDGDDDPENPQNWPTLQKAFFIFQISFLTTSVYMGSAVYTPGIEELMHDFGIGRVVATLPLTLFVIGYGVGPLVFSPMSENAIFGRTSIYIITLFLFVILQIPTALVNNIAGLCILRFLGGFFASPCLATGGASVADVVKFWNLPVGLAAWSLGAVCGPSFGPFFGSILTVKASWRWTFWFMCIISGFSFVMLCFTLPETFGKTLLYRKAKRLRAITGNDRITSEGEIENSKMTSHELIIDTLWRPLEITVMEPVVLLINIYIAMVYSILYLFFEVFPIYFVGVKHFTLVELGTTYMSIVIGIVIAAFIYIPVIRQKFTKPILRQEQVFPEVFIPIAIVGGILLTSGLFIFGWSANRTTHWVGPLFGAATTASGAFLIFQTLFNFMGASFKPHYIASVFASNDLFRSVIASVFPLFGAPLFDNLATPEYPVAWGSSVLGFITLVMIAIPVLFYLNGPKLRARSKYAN

[7] = target: T5, Rac GTPase-activating protein 1 (Homo sapiens, UniProt Q9H0H5); test: MgcRacGAP GTPase-activating activity inhibitors, confirmation, biochemical, ADP Hunter fluorescence, primary and confirmatory (AID 624330)
T5 sequence (Q9H0H5 whole entry): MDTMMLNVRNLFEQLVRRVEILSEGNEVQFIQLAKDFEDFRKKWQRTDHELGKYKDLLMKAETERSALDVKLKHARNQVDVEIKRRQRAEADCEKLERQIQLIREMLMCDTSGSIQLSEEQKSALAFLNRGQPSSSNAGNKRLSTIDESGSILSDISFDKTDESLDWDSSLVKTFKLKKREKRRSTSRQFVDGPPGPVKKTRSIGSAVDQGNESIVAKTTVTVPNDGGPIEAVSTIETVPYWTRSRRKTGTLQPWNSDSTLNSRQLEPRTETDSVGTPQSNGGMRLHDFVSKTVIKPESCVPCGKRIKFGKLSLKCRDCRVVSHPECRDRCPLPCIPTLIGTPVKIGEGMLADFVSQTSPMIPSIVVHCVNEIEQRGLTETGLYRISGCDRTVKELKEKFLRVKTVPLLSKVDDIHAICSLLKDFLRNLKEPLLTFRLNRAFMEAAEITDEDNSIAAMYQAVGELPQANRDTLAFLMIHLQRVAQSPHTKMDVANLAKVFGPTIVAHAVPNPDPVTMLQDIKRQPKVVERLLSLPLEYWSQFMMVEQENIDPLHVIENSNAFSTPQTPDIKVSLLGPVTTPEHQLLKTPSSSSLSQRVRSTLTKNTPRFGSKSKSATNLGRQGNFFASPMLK

Beta-galactosidase = Beta-galactosidase (Escherichia coli, UniProt Q8VNN2); test: PubChem AID 485352
Sequence of Beta-galactosidase (Q8VNN2 whole entry): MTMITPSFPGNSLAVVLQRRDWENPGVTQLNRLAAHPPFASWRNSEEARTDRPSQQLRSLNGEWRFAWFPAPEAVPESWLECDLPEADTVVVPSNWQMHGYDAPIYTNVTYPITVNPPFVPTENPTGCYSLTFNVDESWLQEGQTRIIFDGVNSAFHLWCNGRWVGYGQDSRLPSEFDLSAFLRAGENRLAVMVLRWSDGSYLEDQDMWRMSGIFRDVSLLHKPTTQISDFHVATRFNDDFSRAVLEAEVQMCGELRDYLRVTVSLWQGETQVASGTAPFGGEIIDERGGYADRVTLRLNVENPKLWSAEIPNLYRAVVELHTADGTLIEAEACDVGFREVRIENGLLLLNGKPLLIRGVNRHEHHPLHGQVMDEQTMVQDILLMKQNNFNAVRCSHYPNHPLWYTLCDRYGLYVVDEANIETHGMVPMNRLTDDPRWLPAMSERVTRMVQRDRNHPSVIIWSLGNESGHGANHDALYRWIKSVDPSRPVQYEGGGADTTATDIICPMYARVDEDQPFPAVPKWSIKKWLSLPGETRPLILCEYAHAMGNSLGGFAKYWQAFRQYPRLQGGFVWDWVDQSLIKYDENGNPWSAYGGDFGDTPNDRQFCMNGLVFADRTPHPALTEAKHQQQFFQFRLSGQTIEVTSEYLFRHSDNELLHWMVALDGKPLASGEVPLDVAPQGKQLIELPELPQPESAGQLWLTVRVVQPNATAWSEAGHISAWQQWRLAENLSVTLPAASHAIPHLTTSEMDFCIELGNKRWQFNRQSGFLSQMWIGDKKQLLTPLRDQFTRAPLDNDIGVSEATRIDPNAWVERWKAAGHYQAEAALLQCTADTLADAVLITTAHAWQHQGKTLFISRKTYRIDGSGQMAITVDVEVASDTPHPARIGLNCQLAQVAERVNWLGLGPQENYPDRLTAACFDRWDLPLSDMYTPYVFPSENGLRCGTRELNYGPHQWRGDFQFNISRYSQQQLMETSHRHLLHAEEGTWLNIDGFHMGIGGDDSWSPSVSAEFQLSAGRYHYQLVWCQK

[8] = target: SWI/SNF-related matrix-associated actin-dependent regulator of chromatin subfamily A member 2 (Homo sapiens, UniProt P51531); test: Luminescence-based cell-based high throughput dose response assay to identify activators of the function of SWI/SNF related, matrix associated, actin dependent regulator of chromatin, subfamily a, member 2 (SMARCA2, BRM).
Sequence of SWI/SNF-related matrix-associated actin-dependent regulator of chromatin subfamily A member 2 (P51531 whole entry): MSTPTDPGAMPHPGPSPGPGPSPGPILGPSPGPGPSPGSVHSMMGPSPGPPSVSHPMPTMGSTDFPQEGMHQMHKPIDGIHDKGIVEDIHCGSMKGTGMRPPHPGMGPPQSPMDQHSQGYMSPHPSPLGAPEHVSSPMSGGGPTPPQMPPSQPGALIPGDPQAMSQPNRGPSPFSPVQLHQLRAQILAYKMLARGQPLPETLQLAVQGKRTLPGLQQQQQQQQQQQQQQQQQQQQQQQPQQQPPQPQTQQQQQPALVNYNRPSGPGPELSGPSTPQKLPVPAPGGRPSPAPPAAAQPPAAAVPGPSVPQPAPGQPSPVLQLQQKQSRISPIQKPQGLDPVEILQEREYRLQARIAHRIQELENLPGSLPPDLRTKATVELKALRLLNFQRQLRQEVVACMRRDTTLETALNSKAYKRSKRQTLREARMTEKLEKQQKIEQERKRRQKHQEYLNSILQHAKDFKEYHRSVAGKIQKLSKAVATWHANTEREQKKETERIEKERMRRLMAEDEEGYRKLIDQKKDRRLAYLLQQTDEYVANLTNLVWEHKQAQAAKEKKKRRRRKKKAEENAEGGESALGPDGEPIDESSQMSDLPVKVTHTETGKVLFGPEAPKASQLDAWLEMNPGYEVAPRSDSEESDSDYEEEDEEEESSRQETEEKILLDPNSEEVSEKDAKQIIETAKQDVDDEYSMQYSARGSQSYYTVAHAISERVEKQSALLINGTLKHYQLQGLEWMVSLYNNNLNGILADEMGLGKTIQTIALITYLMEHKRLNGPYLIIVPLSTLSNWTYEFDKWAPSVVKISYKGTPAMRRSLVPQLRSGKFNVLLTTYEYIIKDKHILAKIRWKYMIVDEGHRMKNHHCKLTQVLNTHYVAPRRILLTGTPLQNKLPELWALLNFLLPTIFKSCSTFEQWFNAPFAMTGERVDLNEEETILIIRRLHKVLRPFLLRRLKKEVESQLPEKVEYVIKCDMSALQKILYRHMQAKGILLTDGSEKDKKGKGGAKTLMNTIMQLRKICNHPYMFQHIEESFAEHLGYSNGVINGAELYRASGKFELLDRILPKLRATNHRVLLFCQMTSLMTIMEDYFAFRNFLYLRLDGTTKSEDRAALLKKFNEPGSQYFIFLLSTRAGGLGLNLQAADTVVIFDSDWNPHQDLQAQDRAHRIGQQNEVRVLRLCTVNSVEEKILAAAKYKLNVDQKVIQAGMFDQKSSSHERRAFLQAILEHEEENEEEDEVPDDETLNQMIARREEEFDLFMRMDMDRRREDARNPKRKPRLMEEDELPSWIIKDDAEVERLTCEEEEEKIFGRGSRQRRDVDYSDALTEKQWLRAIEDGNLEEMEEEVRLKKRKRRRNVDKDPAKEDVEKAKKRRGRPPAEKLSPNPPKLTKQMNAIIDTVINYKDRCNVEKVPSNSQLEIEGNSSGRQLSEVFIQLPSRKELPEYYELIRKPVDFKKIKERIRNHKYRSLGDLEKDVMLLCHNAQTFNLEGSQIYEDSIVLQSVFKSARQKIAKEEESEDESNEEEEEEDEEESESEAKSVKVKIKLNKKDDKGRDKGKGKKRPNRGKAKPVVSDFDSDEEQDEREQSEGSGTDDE

[9] = target: T6, Type-1 angiotensin II receptor (Homo sapiens, UniProt P30556); test: AT1 receptor antagonists, dose response, selectivity assay for APJ receptor antagonist project, cell-based, uHTS hits (AID 463214);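 also: antagonist potency against angiotensin II stimulated AT1 response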
T6 sequence (P30556 whole entry): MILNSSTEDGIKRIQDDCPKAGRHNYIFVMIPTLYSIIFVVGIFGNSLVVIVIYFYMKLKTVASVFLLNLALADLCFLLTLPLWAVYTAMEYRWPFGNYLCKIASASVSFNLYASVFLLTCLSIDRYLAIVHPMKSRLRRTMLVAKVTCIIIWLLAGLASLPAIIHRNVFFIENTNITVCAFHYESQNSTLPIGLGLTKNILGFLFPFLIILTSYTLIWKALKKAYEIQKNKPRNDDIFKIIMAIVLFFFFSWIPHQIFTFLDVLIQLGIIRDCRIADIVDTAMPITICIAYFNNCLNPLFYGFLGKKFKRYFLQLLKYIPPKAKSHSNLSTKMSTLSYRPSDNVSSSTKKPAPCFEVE

[10] = Counterscreen for activators of the function of SWI/SNF related, matrix associated, actin dependent regulator of chromatin, subfamily a, member 2 (SMARCA2, BRM): Luminescence-based cell-based high throughput dose response assay to identify non-selective compounds using the VP16 reporter assay.
[11] = target: T7, Polyadenylate-binding protein 1 (Homo sapiens, UniProt P11940); test: PABP1 MLLE–PAM2 binding inhibitor potency, dose response, biochemical, fluorescence polarization, FITC-PAM2 peptide (AID 602259); conditions: read-out: IC50_Mean
T7 sequence (P11940 whole entry): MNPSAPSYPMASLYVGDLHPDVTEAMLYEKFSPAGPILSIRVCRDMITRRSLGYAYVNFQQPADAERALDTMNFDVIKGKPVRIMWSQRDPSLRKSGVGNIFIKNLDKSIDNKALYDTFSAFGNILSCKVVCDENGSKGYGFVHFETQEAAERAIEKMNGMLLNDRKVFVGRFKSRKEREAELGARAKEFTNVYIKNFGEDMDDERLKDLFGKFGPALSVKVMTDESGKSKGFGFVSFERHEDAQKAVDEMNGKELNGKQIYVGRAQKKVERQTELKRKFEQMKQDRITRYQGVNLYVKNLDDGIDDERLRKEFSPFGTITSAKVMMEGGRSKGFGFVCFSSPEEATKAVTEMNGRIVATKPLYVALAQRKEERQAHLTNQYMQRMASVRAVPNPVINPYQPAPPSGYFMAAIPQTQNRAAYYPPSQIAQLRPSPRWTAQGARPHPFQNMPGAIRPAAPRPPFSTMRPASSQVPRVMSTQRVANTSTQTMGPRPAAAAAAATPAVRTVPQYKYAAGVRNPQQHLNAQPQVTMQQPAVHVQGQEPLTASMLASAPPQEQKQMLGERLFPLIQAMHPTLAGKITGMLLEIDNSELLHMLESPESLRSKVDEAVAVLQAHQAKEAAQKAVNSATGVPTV

[12] = Luminescence Cell-Based Dose Retest to Confirm Inhibitors of Cancer Stem Cells. [Related pubchem assays (depositor defined):AID2717, AID2721]; conditions: Homo sapiens
[13] = microbe, parasite or virus in culture; conditions: Mycobacterium tuberculosis
[14] = target: T7, Polyadenylate-binding protein 1; test: PABP1 MLLE–PAM2 interaction inhibitors, dose response, miRNA deadenylation inhibitor project, biochemical, fluorescence polarization, Cy5-PAM2 peptide, secondary (AID 602260); conditions: read-out: IC50_Mean
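For AC50 in this document: cells exposed to compound for roughly 70 hours or longer before luminescence read.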

Sequence of G-protein coupled receptor 55 (Q9Y2T6 whole entry): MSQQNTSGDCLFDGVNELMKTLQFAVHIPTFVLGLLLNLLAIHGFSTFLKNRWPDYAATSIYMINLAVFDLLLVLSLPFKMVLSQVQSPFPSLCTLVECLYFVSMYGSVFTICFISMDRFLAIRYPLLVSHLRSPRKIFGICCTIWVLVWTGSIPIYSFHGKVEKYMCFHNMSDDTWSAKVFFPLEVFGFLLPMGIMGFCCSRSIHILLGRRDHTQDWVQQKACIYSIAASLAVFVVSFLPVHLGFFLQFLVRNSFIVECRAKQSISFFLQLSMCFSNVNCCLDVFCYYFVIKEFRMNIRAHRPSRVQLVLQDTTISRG

Row | Structure (SMILES) | IC50 [3] | IC50 [4] | IC50 (Caspase-3) | IC50 [5] | EC50 (Beta-galactosidase) | IC50 [9] | further results
1 | CCOC(=O)N1CCC(N(CCOC)C(=O)Nc2ccc(Cl)c(Cl)c2)CC1 | – | – | – | – | – | – | EC50 [1]: 2.65 µM (active); IC50 [2]: 0.99 µM (active)
2 | O=C1/C(=C/c2cccs2)Sc2ccccc21 | 2.36 µM (active) | 2.11 µM (active) | 3.44 µM (active) | 2.41 µM (active) | – | – | –
3 | COCCn1c(=S)[nH]c2sc3c(c2c1=O)CCCC3 | – | – | – | – | – | – | EC50 [6]: 0.012 µM (active); IC50 [7]: 38.7 µM (active)
4 | O=C(CNc1cccc(Cl)c1)c1ccc(Br)cc1 | – | – | – | – | > 40 µM (inactive) | 15 µM (active) | EC50 [8]: > 91.2 µM (inactive); EC50 [10]: > 91.2 µM (inactive)
5 | COc1cccc(Nc2nc(-c3ccc4c(c3)OCCO4)cs2)c1 | 20.3 µM (active) | 7.97 µM (active) | 40.2 µM (active) | 30.3 µM (active) | – | – | –
6 | Cc1csc(N=C(S)Nc2cccc(Cl)c2)n1 | – | – | – | – | > 40 µM (inactive) | > 40 µM (not active) | IC50 [11]: > 66 µM (inactive); AC50 [12]: 7.09 µM (active); CC50 [13]: 33.1 µM (active); IC50 [14]: > 66 µM (inactive)
